Measurements reported in ChEMBL document CHEMBL1201862, “PubChem BioAssay data set” (2004).
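Values below derive from 48-hour exposures of cells grown in 96-well plates, with endpoints linearly interpolated between the two concentrations bracketing the appropriate inhibition level. GI50 marks 50% less growth.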 Calls of active or inactive are those of the source. No stated cut-off is given here; in the data, active = GI50 up to about 1.1 µM and inactive = higher.

Legend:
Assay in all cases: NCI tumour cell line growth inhibition, 48 h
[1] = test system: 786-0
[2] = test system: CCRF-CEM
[3] = test system: DLD-1
[4] = test system: DMS-273
[5] = test system: HCC 2998
[6] = test system: HCT-116
[7] = test system: HL-60
[8] = test system: HOP-18
[9] = test system: HOP-62
[10] = test system: K562
[11] = test system: KM-20L2
[12] = test system: LOX IMVI
[13] = test system: LXFL 529
[14] = test system: M14
[15] = test system: MOLT-4
[16] = test system: NCI-H226
[17] = test system: NCI-H23
[18] = test system: NCI-H460
[19] = test system: NCI-H522
[20] = test system: OVCAR-4
[21] = test system: RPMI-8226
[22] = test system: RXF 393
[23] = test system: SF-539
[24] = test system: SK-MEL-28
[25] = test system: SN12C
[26] = test system: SNB-19
[27] = test system: SNB-75
[28] = test system: SNB-78
[29] = test system: U-251
[30] = test system: XF498
[31] = test system: A498
[32] = test system: A549
[33] = test system: ACHN
[34] = test system: CAKI-1
[35] = test system: COLO 205
[36] = test system: DMS-114
[37] = test system: EKVX
[38] = test system: HCT-15
[39] = test system: HOP-92
[40] = test system: HT-29
[41] = test system: IGROV-1
[42] = test system: KM12
[43] = test system: Malme-3M
[44] = test system: OVCAR-3
[45] = test system: OVCAR-5
[46] = test system: OVCAR-8
[47] = test system: SF-268
[48] = test system: SF-295
[49] = test system: SK-MEL-2
[50] = test system: SK-MEL-5
[51] = test system: SK-OV-3
[52] = test system: SR
[53] = test system: SW-620
[54] = test system: TK-10
[55] = test system: UACC-257
[56] = test system: UACC-62
[57] = test system: UO-31
[58] = test system: M19-MEL
[59] = test system: MCF7
[60] = test system: NCI/ADR-RES

O=c1oc(-c2ccccc2)cn1-c1ccccc1
GI50 [1]: > 100 µM (inactive) | GI50 [2]: > 100 µM (inactive) | GI50 [3]: > 100 µM (inactive) | GI50 [4]: > 100 µM (inactive) | GI50 [5]: > 100 µM (inactive) | GI50 [6]: > 100 µM (inactive) | GI50 [7]: > 100 µM (inactive) | GI50 [8]: 95.3 µM (inactive) | GI50 [9]: > 100 µM (inactive) | GI50 [10]: > 100 µM (inactive) | GI50 [11]: 94.8 µM (inactive) | GI50 [12]: 94.8 µM (inactive) | GI50 [13]: > 100 µM (inactive) | GI50 [14]: > 100 µM (inactive) | GI50 [15]: > 100 µM (inactive) | GI50 [16]: > 100 µM (inactive) | GI50 [17]: > 100 µM (inactive) | GI50 [18]: > 100 µM (inactive) | GI50 [19]: 70.8 µM (inactive) | GI50 [20]: > 10 µM (inactive) | GI50 [21]: > 100 µM (inactive) | GI50 [22]: > 100 µM (inactive) | GI50 [23]: 88.7 µM (inactive) | GI50 [24]: > 100 µM (inactive) | GI50 [25]: > 100 µM (inactive) | GI50 [26]: > 100 µM (inactive) | GI50 [27]: > 100 µM (inactive) | GI50 [28]: > 100 µM (inactive) | GI50 [29]: > 100 µM (inactive) | GI50 [30]: > 100 µM (inactive)

CNC(C)Cc1ccccc1O (centres undefined)
GI50 [1]: > 100 µM (inactive) | GI50 [31]: > 100 µM (inactive) | GI50 [32]: > 100 µM (inactive) | GI50 [33]: > 100 µM (inactive) | GI50 [34]: > 100 µM (inactive) | GI50 [2]: > 100 µM (inactive) | GI50 [35]: > 100 µM (inactive) | GI50 [3]: > 100 µM (inactive) | GI50 [36]: > 100 µM (inactive) | GI50 [4]: > 100 µM (inactive) | GI50 [37]: > 100 µM (inactive) | GI50 [5]: > 100 µM (inactive) | GI50 [6]: > 100 µM (inactive) | GI50 [38]: 8.71 µM | GI50 [7]: > 100 µM (inactive) | GI50 [8]: > 100 µM (inactive) | GI50 [9]: > 100 µM (inactive) | GI50 [39]: > 100 µM (inactive) | GI50 [40]: > 100 µM (inactive) | GI50 [41]: > 100 µM (inactive) | GI50 [10]: > 100 µM (inactive) | GI50 [11]: > 100 µM (inactive) | GI50 [42]: > 100 µM (inactive) | GI50 [12]: > 100 µM (inactive) | GI50 [13]: > 100 µM (inactive) | GI50 [14]: > 100 µM (inactive) | GI50 [15]: > 100 µM (inactive) | GI50 [43]: > 100 µM (inactive) | GI50 [16]: > 100 µM (inactive) | GI50 [17]: > 100 µM (inactive) | GI50 [18]: > 100 µM (inactive) | GI50 [19]: > 100 µM (inactive) | GI50 [44]: > 100 µM (inactive) | GI50 [20]: > 100 µM (inactive) | GI50 [45]: > 100 µM (inactive) | GI50 [46]: > 100 µM (inactive) | GI50 [21]: > 100 µM (inactive) | GI50 [22]: > 100 µM (inactive) | GI50 [47]: > 100 µM (inactive) | GI50 [48]: > 100 µM (inactive) | GI50 [23]: > 100 µM (inactive) | GI50 [24]: > 100 µM (inactive) | GI50 [49]: > 100 µM (inactive) | GI50 [50]: > 100 µM (inactive) | GI50 [51]: > 100 µM (inactive) | GI50 [25]: > 100 µM (inactive) | GI50 [26]: > 100 µM (inactive) | GI50 [27]: > 100 µM (inactive) | GI50 [28]: > 100 µM (inactive) | GI50 [52]: > 100 µM (inactive) | GI50 [53]: > 100 µM (inactive) | GI50 [54]: > 100 µM (inactive) | GI50 [29]: > 100 µM (inactive) | GI50 [55]: > 100 µM (inactive) | GI50 [56]: > 100 µM (inactive) | GI50 [57]: > 100 µM (inactive)

Cc1c2c(cc3c1[nH]c1ccccc13)C(c1ccc(Cl)cc1)=NCC2
GI50 [31]: 0.124 µM (active) | GI50 [32]: 0.665 µM (active) | GI50 [2]: 0.433 µM (active) | GI50 [35]: 0.41 µM (active) | GI50 [3]: 0.452 µM (active) | GI50 [36]: 0.347 µM (active) | GI50 [4]: 0.237 µM (active) | GI50 [37]: 0.274 µM (active) | GI50 [5]: 0.991 µM (active) | GI50 [6]: 0.542 µM (active) | GI50 [38]: 0.416 µM | GI50 [7]: 0.288 µM (active) | GI50 [8]: 3.99 µM (inactive) | GI50 [9]: 0.738 µM (active) | GI50 [39]: 0.716 µM (active) | GI50 [40]: 0.203 µM (active) | GI50 [41]: 0.944 µM (active) | GI50 [10]: 0.328 µM (active) | GI50 [11]: 0.301 µM (active) | GI50 [42]: 0.274 µM (active) | GI50 [12]: 0.424 µM (active) | GI50 [58]: 0.726 µM (active) | GI50 [59]: 0.236 µM (active) | GI50 [15]: 0.426 µM (active) | GI50 [43]: 1.83 µM (inactive) | GI50 [16]: 1.3 µM (inactive) | GI50 [17]: 0.368 µM (active) | GI50 [18]: 0.267 µM (active) | GI50 [19]: 0.288 µM (active) | GI50 [60]: 0.264 µM (active) | GI50 [44]: 0.29 µM (active) | GI50 [20]: 0.718 µM (active) | GI50 [45]: 7.78 µM (inactive) | GI50 [46]: 0.804 µM (active) | GI50 [21]: 0.497 µM (active) | GI50 [22]: 0.465 µM (active) | GI50 [47]: 0.598 µM (active) | GI50 [48]: 0.255 µM (active) | GI50 [23]: 0.667 µM (active) | GI50 [24]: 1.45 µM (inactive) | GI50 [49]: 0.711 µM (active) | GI50 [50]: 0.343 µM (active) | GI50 [51]: 2.67 µM (inactive) | GI50 [25]: 0.244 µM (active) | GI50 [26]: 0.355 µM (active) | GI50 [27]: 0.217 µM (active) | GI50 [28]: 0.682 µM (active) | GI50 [53]: 0.356 µM (active) | GI50 [29]: 0.608 µM (active) | GI50 [55]: 0.621 µM (active) | GI50 [56]: 0.452 µM (active) | GI50 [57]: 0.644 µM (active) | GI50 [30]: 0.0973 µM (active)
